Reference: patent US20250120975A1, “INTEGRIN INHIBITORS FOR TREATMENT OF PRIMARY SCLEROSING CHOLANGITIS” (Pliant Therapeutics, Inc., priority 2023, published 2025)

Tested on: PCLivS from human liver tissue with biliary fibrosis (PSC, PBC)
Experiment: Fibrotic gene expression (NanoString) in precision cut liver slices
Format: cell-based
Details: PCLivS from a single PSC liver, 2 days
Text: A human liver tissue explant was obtained from a PSC patient undergoing liver transplantation.
Slicing: To slice, 8-mm cores were punctured from the liver tissue and were stored in ice cold UW solution until slicing. A tissue core was glued onto the center of the plunger of the specimen syringe for slicing. The core was embedded in 2% low gelling temperature agarose made up in milliQ water. The thickness of the slice was adjusted to 400 μm and was sectioned into oxygenated KHB occurs. The slices were stored in cold UW solution on ice until all slices were cut.
Culture: The compounds were diluted to 1000× concentration in 100% DMSO. The compounds were diluted in a medium with a final concentration of 0.1% DMSO before transferring the slices and making a fresh medium for each 24-H medium change. Before being used for slice culture, all media was equilibrated in the incubator at culture conditions for 30 minutes. After all slices have been cut, all slices were transferred to wells prefilled with oxygenated, warmed, and equilibrated WEGG. The slices were incubated for 1 hour in the incubator at a temperature of 37° C., 5% CO2, 80% 02, 100% humidity on shaking platform set at 55 rpm. After this one-hour recovery, the slices were transferred to wells prefilled with oxygenated, warmed, and equilibrated WEGG with appropriate treatments. The slices were distributed into the treatment groups to account for inter-core variability. The slices were cultured at 37° C., 80% 02, 5% CO2, 100% humidity on shaking platform set at 55 rpm. The medium was changed after 24 hours.
The slices were removed from the well and rinsed in PBS. Excess liquid was removed. The slices were transferred to a microtube pooling all three slices from the same treatment into one tube. The pooled slices were snap frozen in liquid nitrogen and placed on dry ice until all samples were collected and then transferred to −80° C. for storage. For media collection, 140 μL of medium was pooled from each well within a treatment group and transferred to a 96-well Axygen plate. After sealing the plate, spin down occurred at 4000×g for 10 minutes at 4° C. Then, 130 μL aliquots were transferred into 3 new plates. The plates were sealed and stored at −80° C.
(S)-4-((2-methoxyethyl)(4-(5,6,7,8-tetrahydro-1,8-naphthyridin-2-yl)butyl)amino)-2-(quinazolin-4-ylamino)butanoic acid was tested at 100 nM, 1 μM, and 10 μM. OCA, an FXR agonist in clinical trials for PSC, was used at 250 nM and 2.5 μM reflecting Cmax levels observed in clinical trials. An ALK5 inhibitor (R268712) was used at 1 μM (400 times its IC50 per manufacturer) to target max inhibition of the ALK5 receptor.
Methods: Lysis buffer was made with one third RLT buffer in RNAse-free water and 2 mg/mL proteinase K. About 100-200 μL lysis buffer was added to each pool of 3 liver slices. Samples were incubated at 55° C. in the bead bath for 2 hours and 45 minutes, vortexing every 30 minute. Samples were centrifuged and the supernatant aliquoted in 15 μL aliquots into 96-well Axygen plates.
Methods: nCounter PlexSet was run according to standard protocol. Briefly, probe A and probe B were diluted with TE-tween to Working Probe Pools and mixed with hybridization buffer. This master mix was added to the A-H PlexSets and mixed. Each PlexSet was added across a row to a 96 well qPCR plate and proteinase K was added to a final concentration of 2 mg/mL. Lysate from samples was added to appropriate wells and mixed. The plate was sealed, spun, and placed in thermocycler at 67° C. for 16 hours. Hybridized samples were pooled down columns and 35 μL were loaded on a Sprint Cartridge and run on the nCounter Sprint. Data analysis was performed in nSolver using background thresholding based on negative controls, positive control normalization, reference sample normalization and normalization to housekeeping genes (GUSB, HPRT1, POLR1B, RPLP0, SRFS4, and/or UBC). […]

Row | SMILES | % Inhibition of expression COL1A1 (1 μM) [%] | % Inhibition of expression COL1A2 (1 μM) [%] | % Inhibition of expression COL1A1 (250 nM) [%] | % Inhibition of expression COL1A2 (250 nM) [%] | % Inhibition of expression COL1A1 (2.5 μM) [%] | % Inhibition of expression COL1A2 (2.5 μM) [%]
1 | Cc1cccc(-c2[nH]ncc2-c2ccc(F)c(-c3cnn(CCO)c3)c2)n1 [Alk5 Inh., reference compound] | 79 | 46 | – | – | – | –
2 | CC[C@H]1[C@@H](O)[C@@H]2[C@H](CC[C@]3(C)[C@@H]([C@H](C)CCC(=O)O)CC[C@@H]23)[C@@]2(C)CC[C@@H](O)C[C@@H]12 [OCA, obeticholic acid, reference compound] | – | – | 44 | 19 | 35 | 15
